Each block holds one molecule with its values, some of them ahead of it. Square brackets hold non-standard residues; d marks the D form. Peptide text beside a SMILES is read from it. * marks the point of attachment. pY = N[C@@H](Cc1ccc(OP(=O)(O)O)cc1)C(=O)O; X1 = O=C(O)C(C(=O)O)*
Columns and labels:
Format in all cases: functional
[1] = target: Proto-oncogene tyrosine-protein kinase Src (Homo sapiens, UniProt P12931); experiment: Inhibitory activity against Src protein tyrosine kinase SH2 domain
Sequence of Proto-oncogene tyrosine-protein kinase Src (P12931 2-536 limits assumed): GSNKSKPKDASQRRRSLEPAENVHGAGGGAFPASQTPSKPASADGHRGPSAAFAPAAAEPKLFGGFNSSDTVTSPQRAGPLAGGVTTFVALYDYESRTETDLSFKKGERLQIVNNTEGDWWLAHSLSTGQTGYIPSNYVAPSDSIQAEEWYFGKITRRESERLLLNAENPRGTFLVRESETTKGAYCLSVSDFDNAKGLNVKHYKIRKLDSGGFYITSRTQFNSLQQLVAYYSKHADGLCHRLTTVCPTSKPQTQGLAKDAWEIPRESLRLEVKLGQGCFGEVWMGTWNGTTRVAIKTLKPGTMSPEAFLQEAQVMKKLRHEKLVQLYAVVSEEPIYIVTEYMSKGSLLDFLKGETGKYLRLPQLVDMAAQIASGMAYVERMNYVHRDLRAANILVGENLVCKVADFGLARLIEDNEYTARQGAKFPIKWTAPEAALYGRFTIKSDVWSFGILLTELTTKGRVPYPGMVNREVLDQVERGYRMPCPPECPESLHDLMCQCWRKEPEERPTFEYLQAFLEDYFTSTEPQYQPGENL

[2] = Inhibitory activity against SH2 domain of PI3-kinase p85
[3] = target: T1, Tyrosine-protein phosphatase non-receptor type 11 (Homo sapiens, UniProt Q06124); experiment: Inhibitory activity against SH2 domain of SH-PTP2 (N-terminal) binding
T1 sequence (Q06124 whole entry): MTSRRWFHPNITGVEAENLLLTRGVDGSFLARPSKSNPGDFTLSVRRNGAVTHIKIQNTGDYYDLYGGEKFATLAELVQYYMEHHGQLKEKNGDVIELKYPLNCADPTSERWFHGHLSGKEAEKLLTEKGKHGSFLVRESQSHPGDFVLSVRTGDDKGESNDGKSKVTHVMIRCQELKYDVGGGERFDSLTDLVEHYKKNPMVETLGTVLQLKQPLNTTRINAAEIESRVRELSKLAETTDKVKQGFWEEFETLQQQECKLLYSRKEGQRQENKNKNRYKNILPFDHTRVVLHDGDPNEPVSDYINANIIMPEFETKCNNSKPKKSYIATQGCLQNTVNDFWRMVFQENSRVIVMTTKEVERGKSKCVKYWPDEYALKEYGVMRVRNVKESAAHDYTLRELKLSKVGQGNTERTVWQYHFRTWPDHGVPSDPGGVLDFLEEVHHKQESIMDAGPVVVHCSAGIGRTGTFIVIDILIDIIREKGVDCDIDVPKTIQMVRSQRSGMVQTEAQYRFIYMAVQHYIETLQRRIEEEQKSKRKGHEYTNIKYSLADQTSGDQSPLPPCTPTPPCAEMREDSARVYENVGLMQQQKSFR

[4] = target: Growth factor receptor-bound protein 2 (Homo sapiens, UniProt P62993); experiment: Inhibition of binding to Growth factor receptor bound protein 2 SH2 domain

IC50 [1]: 25 µM
Compound: CC[C@H](C)[C@H](NC(=O)[C@H](CCC(=O)O)NC(=O)[C@H](CCC(=O)O)NC(=O)[C@H](Cc1ccc(OC(C(=O)O)C(=O)O)cc1)NC(=O)[C@H](CCC(N)=O)NC(C)=O)C(=O)N1CCC[C@H]1C(N)=O

IC50 [2]: 14.2 µM
Compound: CSCC[C@H](NC(=O)[C@@H]1CCCN1C(=O)[C@@H](NC(=O)[C@H](Cc1ccc(OC(C(=O)O)C(=O)O)cc1)NC(=O)[C@H](CC(=O)O)NC(C)=O)C(C)C)C(=O)N[C@@H](CC(C)C)C(N)=O (Ac-DY(X1)VPML-NH2)

IC50 [3]: 22 µM
Compound: CC[C@H](C)[C@H](NC(=O)[C@H](Cc1ccc(OC(C(=O)O)C(=O)O)cc1)NC(=O)[C@H](CC(N)=O)NC(=O)[C@H](CC(C)C)NC(C)=O)C(=O)N[C@@H](CC(=O)O)C(=O)N[C@@H](CC(C)C)C(=O)N[C@@H](CC(=O)O)C(=O)N[C@@H](CC(C)C)C(=O)N[C@H](C(N)=O)C(C)C (Ac-LNY(X1)IDLDLV-NH2)

IC50 [4]: 120 µM
Compound: CC[C@H](C)[C@H](NC(=O)[C@H](CC(N)=O)NC(=O)[C@@H](NC(=O)[C@H](Cc1ccc(OC(C(=O)O)C(=O)O)cc1)NC(=O)[C@H](CC(N)=O)NC(C)=O)C(C)C)C(=O)N[C@@H](CCC(=O)O)C(N)=O (Ac-NY(X1)VNIE-NH2)

Further lines, the molecule ahead of its results:

Compound: CC[C@H](C)[C@H](NC(=O)[C@H](CCC(=O)O)NC(=O)[C@H](CCC(=O)O)NC(=O)[C@H](Cc1ccc(OP(=O)(O)O)cc1)NC(=O)[C@H](CCC(N)=O)NC(C)=O)C(=O)N1CCC[C@H]1C(N)=O
IC50 [1]: 3.2 µM

Compound: CC[C@H](C)[C@H](NC(=O)[C@H](CCC(=O)O)NC(=O)[C@H](Cc1ccc(OC(C(=O)O)C(=O)O)cc1)NC(=O)[C@H](Cc1ccc(OC(C(=O)O)C(=O)O)cc1)NC(=O)[C@H](CCC(N)=O)NC(C)=O)C(=O)N1CCC[C@H]1C(N)=O
IC50 [1]: 22.8 µM

Compound: CSCC[C@H](NC(=O)[C@@H]1CCCN1C(=O)[C@@H](NC(=O)[C@H](Cc1ccc(OP(=O)(O)O)cc1)NC(=O)[C@H](CC(=O)O)NC(C)=O)C(C)C)C(=O)N[C@@H](CC(C)C)C(N)=O (Ac-D[pY]VPML-NH2)
IC50 [2]: 0.15 µM

Compound: CC[C@H](C)[C@H](NC(=O)[C@H](Cc1ccc(OP(=O)(O)O)cc1)NC(=O)[C@H](CC(N)=O)NC(=O)[C@H](CC(C)C)NC(C)=O)C(=O)N[C@@H](CC(=O)O)C(=O)N[C@@H](CC(C)C)C(=O)N[C@@H](CC(=O)O)C(=O)N[C@@H](CC(C)C)C(=O)N[C@H](C(N)=O)C(C)C (Ac-LN[pY]IDLDLV-NH2)
IC50 [3]: 1.54 µM

Compound: CC[C@H](C)[C@H](NC(=O)[C@H](CC(N)=O)NC(=O)[C@@H](NC(=O)[C@H](Cc1ccc(OP(=O)(O)O)cc1)NC(=O)[C@H](CC(N)=O)NC(C)=O)C(C)C)C(=O)N[C@@H](CCC(=O)O)C(N)=O (Ac-N[pY]VNIE-NH2)
IC50 [4]: 0.9 µM

Reference: ChEMBL document CHEMBL1128327, “L-O-(2-malonyl)tyrosine: a new phosphotyrosyl mimetic for the preparation of Src homology 2 domain inhibitory peptides” (J Med Chem, 1995)
